# Tested on: Human follicular cell line RL
# Assay: CDX model for FL: RL cells subcutaneously in SCID mice
# Format: in vivo
# Conditions: RL xenograft in SCID mice
# Description: Human follicular cell line RL was subcutaneously injected in SCID mice, with a concentration of 5.10^6 cells per injection (200 μL). Mice were randomized when the tumors reached a mean volume of about 100 mm^3 for the 9 groups (total 45 mice). […] The endpoint was defined by animal ethics as a tumor diameter of >18 mm, significant weight loss or alteration of animal well-being. In order to assess the effectiveness of the compounds on tumorigenesis, tumor volume was measured two times a week. The sizes of the primary tumors were measured using calipers and the tumor volume (TV) was extrapolated to a sphere using the formula TV=4/3 […]×r^3, by calculating the mean radius from the two measurements. The median and standard deviation were also calculated for each group. Median is preferred to mean in order to exclude the extreme values. MAb treatment was administered by intraperitoneal injection twice a week during three weeks at 30, 10 or 1 mg/kg doses. The product was prepared in accordance with the sponsor's guidelines, i.e. diluted in PBS. Mice were sacrificed when the tumors reached a maximum volume of 1600 mm^3. The endpoints were defined by […] as a tumor diameter of >18 mm or weight loss of >10% of body weight, or when the tumors are dangerous for mice (necrosis). Statistical analysis was performed with GraphPad Prism software. GraphPad Prism combined scientific graphing, comprehensive curve fitting, understandable statistics, and data organization. The t-test (two-tailed test) was performed on the tumor volume values (mm^3) measured on the day of sacrifice.
# [1] = Day 55, 1 mg/kg each MAb, percentage of mice
substance,measurement,setting,value
rituximab,mice in complete remission,"1 mg/kg, day 45",33%
same,Complete Remission,[1],33
same,Tumor progression,[1],67

# — patent publication US11634488B2, “Treatment of B cell malignancies using afucosylated pro-apoptotic anti-CD19 antibodies in combination with anti CD20 antibodies or chemotherapeutics” (INTERNATIONAL—DRUG—DEVELOPMENT—BIOTECH, priority 2017, dated 2023)
